Assay results published in patent US12459951B2, “Compounds that interact with RAS superfamily proteins for treatment of cancers, inflammatory diseases, rasopathies, and fibrotic disease” (SHY Therapeutics, LLC, priority 2022, dated 2025).

How the values were obtained:
[1] = tested on: Erk1/2 phosphorylation; experiment: Erk1/2 Phosphorylation Assay (western blot), Panc-1; type: cell-based, human; settings: at 10 μM, * = activation
Summary of the method: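 KRas G12D Panc-1 cells were treated 6 h at 37° C with compound at 10 μM or serial dilutions for IC50 (0.3% DMSO). In method 1, cells were serum-starved overnight (0.5% FBS) and then given 1.5 ng/ml EGF for 15 min. In method 2, cells stayed in 10% FBS without stimulation. Lysate phospho-Erk1/2 (Thr202/Tyr204) was read by western blot.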

[2] = tested on: Akt phosphorylation; experiment: Akt Phosphorylation Assay (western blot), Panc-1; type: cell-based, human; settings: at 10 μM, * = activation
Summary of the method: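 Panc-1 (KRas G12D) cells were treated with compound at 10 μM final (0.3% DMSO) for 6 h at 37 °C, or with serial dilutions for IC50. Cells were either serum-starved overnight in 0.5% FBS and then stimulated with 1.5 ng/ml EGF for 15 min, or kept in 10% FBS without stimulation. Akt Ser473 phosphorylation in lysates was read by western blot.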

[3] = tested on: TNF-alpha; experiment: TNF-alpha Quantification Assay (ELISA), LPS-stimulated RAW 264.7; type: cell-based; settings: Mus musculus, RAW264.7; at 10 μM; read-out: TNFα: % inh.

Row | Structure (SMILES) | % inh of Erk1/2 phosphorylation in Panc-1 [1] | % inh of Akt phosphorylation in Panc-1 [2] | inhibition at 10 µM [3]
1 | COc1cccc(-c2cn3nc(-c4nccn4C)nc(N[C@H]4C[C@H](OC)C4)c3c2-c2ccccn2)c1C [Compound 274, 6-(3-Methoxy-2-methylphenyl)-N-((1r,3r)-3-methoxycyclobutyl)-2-(1-methyl-1H-imidazol-2-yl)-5-(pyridin-2-yl)pyrrolo[2,1-f][1,2,4]triazin-4-amine] | D (85-100% inhibition) | D (85-100% inhibition) | 75 to 100%
2 | Cc1c(-c2ccn(C(C)C)n2)cn2nc(-c3nccn3C)nc(Nc3ncco3)c12 [Compound 60, N-(6-(1-Isopropyl-1H-pyrazol-3-yl)-5-methyl-2-(1-methyl-1H-imidazol-2-yl)pyrrolo[2,1-f][1,2,4]triazin-4-yl)oxazol-2-amine] | A (1-25% inhibition) | D* (85-100% activation) | 0%
3 | Cc1c(-c2ccn(C)n2)cn2nc(-c3nccn3C)nc(Nc3cc(-n4ccnc4C)ccn3)c12 [Compound 246, 5-Methyl-N-(4-(2-methyl-1H-imidazol-1-yl)pyridin-2-yl)-2-(1-methyl-1H-imidazol-2-yl)-6-(1-methyl-1H-pyrazol-3-yl)pyrrolo[2,1-f][1,2,4]triazin-4-amine] | 0 (0% inhibition) | D* (85-100% activation) | 0%
4 | CCOc1cc(Nc2nc(-c3nccn3C)nn3cc(-c4ccn(C)n4)c(C)c23)n[nH]1 [Compound 260, N-(5-Ethoxy-1H-pyrazol-3-yl)-5-methyl-2-(1-methyl-1H-imidazol-2-yl)-6-(1-methyl-1H-pyrazol-3-yl)pyrrolo[2,1-f][1,2,4]triazin-4-amine] | A* (1-25% activation) | C* (46-84% activation) | 25 to 49%
5 | COc1cccc(-c2cn3nc(-c4nccn4C)nc(N[C@H]4C[C@H](OC)C4)c3c2-c2ccn(C)n2)c1F [Compound 47, 6-(2-Fluoro-3-methoxyphenyl)-N-((1r,3r)-3-methoxycyclobutyl)-2-(1-methyl-1H-imidazol-2-yl)-5-(1-methyl-1H-pyrazol-3-yl)pyrrolo[2,1-f][1,2,4]triazin-4-amine] | C (50-84% inhibition) | C* (46-84% activation) | 1 to 24%
6 | Cc1c(-c2ccn(C)n2)cn2nc(-c3nccn3C)nc(N3CCc4cc(C(F)(F)F)cnc43)c12 [Compound 251, 5-Methyl-2-(1-methyl-1H-imidazol-2-yl)-6-(1-methyl-1H-pyrazol-3-yl)-4-(5-(trifluoromethyl)-2,3-dihydro-1H-pyrrolo[2,3-b]pyridin-1-yl)pyrrolo[2,1-f][1,2,4]triazine] | B (26-49% inhibition) | A (1-25% inhibition) | 
7 | COc1cc(-c2cn3nc(-c4nccn4C)nc(Nc4cc(OC)ncn4)c3c2C)ccn1 [Compound 50, 6-(2-Methoxypyridin-4-yl)-N-(6-methoxypyrimidin-4-yl)-5-methyl-2-(1-methyl-1H-imidazol-2-yl)pyrrolo[2,1-f][1,2,4]triazin-4-amine] | B* (26-49% activation) | D* (85-100% activation) | 0%
8 | COc1cc(Nc2nc(-c3nccn3C)nn3cc(-c4ccn(C(C)C)n4)c(C)c23)n[nH]1 [Compound 51, 6-(1-Isopropyl-1H-pyrazol-3-yl)-N-(5-methoxy-1H-pyrazol-3-yl)-5-methyl-2-(1-methyl-1H-imidazol-2-yl)pyrrolo[2,1-f][1,2,4]triazin-4-amine] | 0 (0% inhibition) | D* (85-100% activation) | 25 to 49%
